Assay results from patent publication US9828623B2 (priority 2014, dated 2017).

The substances below were run on cDNA probe. Conditions: pH 7.5.

Point of comparison: AAAAAAAAAAAAAAAAAAAA [A20], “event mean residence time” value 11.7 ± 0.2 ms. Against it:
- 5′-GGATTATTGTGAAATATTGA-3′ [aLF-1] — higher, 342 ± 35 ms
- 5′-GGATTATGGTGAAATATTGA-3′ [aLF-2] — higher, 57.4 ± 2.5 ms
- TTTTTTTTTTTTTTTTTTTT [T20] — lower, 0.12 ± 0.01 ms
